From patent US7414058B2, “Adenosine A2a receptor antagonists for the treatment of extra-pyramidal syndrome and other movement disorders” (Schering Corporation, priority 2002, dated 2008)

Test system: haloperidol-induced EPS in Cebus apella monkeys
Assay: Haloperidol-induced EPS in sensitized Cebus apella monkeys
Format: in vivo
Settings: for monkeys in which onset of EPS was prevented: group of seven monkeys
Protocol: A more complete understanding of the invention may be obtained by reading the following description in conjunction with the appended figures relating to haloperidol-induced EPS in Cebus apella monkeys.
Compound A was administered orally (p.o.) at doses of 0.3-30 mg/kg, in conjunction with haloperidol. The studies were conducted using a within-subjects design such that each monkey received all 6 treatments (vehicle and 5 doses of Compound A) in a crossover, balanced design.

[1] = 1 mg/kg p.o., haloperidol 0.3 mg/kg p.o.
[2] = 10 and 30 mg/kg p.o., haloperidol 0.3 mg/kg p.o.

Question: Which “monkeys in which onset of EPS was prevented” value (shortened to “monkeys in which onset”) [1] does the source give for `Nc1nc2c(cnn2CCN2CCN(c3ccc(F)cc3F)CC2)c2nc(-c3ccco3)nn12` [Compound A] here?
Answer: one

Question: What about the “delay of the onset of EPS” value [1] of the same compound?
Answer: 1 h

Question: And the “monkeys in which onset” value (3 mg/kg p.o., haloperidol 0.3 mg/kg p.o.)?
Answer: two

Question: And the “delay of the onset of EPS” value (3 mg/kg p.o., in the remaining monkeys, haloperidol 0.3 mg/kg p.o.)?
Answer: ~2 h

Question: And the “monkeys in which onset” value [2]?
Answer: three

Question: And the “delay of the onset of EPS (average)” value [2]?
Answer: 2.3 to 2.9 h

Question: And the “maximum EPS score” value (Compound A 0.3-30 mg/kg p.o. with haloperidol 0.3 mg/kg p.o., FIG. 1A, seven monkeys, crossover)?
Answer: dose-dependent reduction

Question: And the “delay in the onset of EPS (dose dependence)” value (Compound A 0.3-30 mg/kg p.o. with haloperidol 0.3 mg/kg p.o., FIG. 1B, vs vehicle)?
Answer: dose-dependent delay
